From patent publication US6890917B2, “Geldanamycin derivative and method of treating cancer using same” (The United States of America as represented by the …, priority 2001, dated 2005)

System: standard panel of 12 human tumor cell lines (NCI-H23, NCI-H522, MDA-MB-231, MDA-MB-435, SW-620, COLO 205, LOX IMVI, UACC-62, OVCAR-3, OVCAR-5, U251, SF295)
Experiment: Hollow fiber assay (HFA) with stable endpoint MTT assay, compound given to mice carrying intraperitoneal and subcutaneous fiber implants
Type: in vivo
Design: Total HFA Score: scale not given here
Conditions: for Total HFA Score / IP Score / SC Score: HFA in mice; for Total HFA Score: IP + SC scores; for IP Score: intraperitoneal fiber implants; for IP Score / SC Score: 2 points per 50% or greater reduction in viable cell mass; for SC Score: subcutaneous fiber implants; for in vivo anti-cancer activity compared with Compound C (in words): intraperitoneal injection, Table 1
Description: Compounds A-C were tested in a hollow fiber assay for in vivo activity. Each compound was tested against a standard panel of 12 human tumor cell lines including NCI-H23, NCI-H522, MDA-MB-231, MDA-MB-435, SW-620, COLO 205, LOX IMVI, UACC-62, OVCAR-3, OVCAR-5, U251 and SF295. The cell lines were cultivated in RPMI-1640 containing 10% FBS and 2 mM glutamine. On the day preceding hollow fiber preparation, the cells were given a supplementation of fresh medium to maintain log phase growth. For fiber preparation, the cells were harvested by standard trypsinization technique and resuspended at the desired cell density. The cell suspensions were flushed into 1 mm polyvinylidene fluoride (PVDF) hollow fibers (MW exclusion of 500,000 Da) and subsequently heat-sealed at 2 cm intervals. The samples generated from these seals were placed into tissue culture medium and incubated at 37° C. in 5% CO2 for 24-48 hours prior to implantation. A total of 3 different tumor cell lines were prepared for each experiment so that each mouse received 3 intraperitoneal implants (1 of each tumor cell line) and 3 subcutaneous implants (1 of each tumor cell line). A total of 4 experiments were conducted on each mouse (3 cell lines/experiment×4 experiments=12 cell lines).
On the day of implantation, samples of each tumor cell line were quantitated for viable cell mass by a stable endpoint MTT assay so that the time 0 cell mass was known. In the MTT assay, the fibers were incubated in 6-well plates (1-6 fibers/well) with 3 mL of pre-warmed (37° C.) complete medium containing MTT (1 mg/mL) (Sigma) for 4 hours at 37° C. in 5% CO2. The MTT solution was aspirated and the fibers were washed with 2 mL of saline containing 2.5% protamine sulfate overnight at 4° C. A second wash was performed with 2 mL of saline containing 2.5% protamine sulfate, and the fibers were maintained at 4° C. for a minimum of 2 hours. The fibers were then removed from the protamine sulfate, individually wiped, placed in a 24-well plate (1 fiber/well), cut in half and dried overnight in a biosafety hood. To extract the formazan, DMSO was added (0.25 mL) to each well and the plates were rotated for 4 hours at room temperature. The extracted samples were transferred to 96-well plates and the OD was determined at 540 nm. From these spectrophotomeric measurements, the cytostatic and cytocidal capacities of the test compound were assessed.
Following implantation of the hollow fibers, mice were treated with one of the compounds, as listed in Tables 1 and 2 starting on day 3 or 4 following fiber implantation and continuing once daily for a total of 4 doses. Each compound was either assessed by intraperitoneal injection (Example 1) or by oral administration (Example 2) at 2 dose levels with 3 mice/dose/experiment. Vehicle controls consisted of 6 mice receiving the compound diluent only. The fibers were collected from the mice on the day following the fourth compound treatment and subjected to the stable endpoint MTT assay. The optical density of each sample was determined spectrophotometrically at 540 nm and the mean of each treatment group was calculated. The percent net cell growth in each treatment group was determined and compared to the percent net cell growth in the vehicle treated controls.
In the context of the following examples, compounds were selected for further testing (e.g., time/dose exposure studies, preliminary pharmacology studies, subcutaneous xenograft efficacy studies) on the basis of several hollow fiber assay criteria, including (1) a reduction in net cell growth of 50% or greater in 10 of the 48 possible test combinations; (2) a reduction in net cell growth of 50% or greater in a minimum of 4 of the 24 distant site combinations (SC score); and/or (3) cell kill of 1 or more cell lines in either implant site (reduction in the viable cell mass below the level present at the start of the experiment). […]

[1] = compound by intraperitoneal injection once daily for 4 days, 2 dose levels (A, B: 75 and 50 mg/kg/dose; C: 20 and 13.4 mg/kg/dose)
[2] = compound orally (PO) once daily for 4 days, 75 and 50 mg/kg/dose

Compound	Total HFA Score [1]	IP Score [1]	SC Score [1]	in vivo anti-cancer activity compared with Compound C (in words) (HFA)	Total HFA Score [2]	IP Score [2]	SC Score [2]	in vivo anti-cancer activity by oral administration (in words) (HFA, oral administration, Table 2)
CO[C@H]1/C=C\C=C(/C)C(=O)NC2=CC(=O)C(NCCN(C)C)=C(C[C@@H](C)C[C@H](OC)[C@H](O)[C@@H](C)/C=C(\C)[C@@H]1OC(N)=O)C2=O [Compound A, 17-Dimethylaminoethylamino-17-demethoxygeldanamycin]	30	20	10	significantly greater in vivo anti-cancer activity	–	–	–	–
CO[C@H]1/C=C\C=C(/C)C(=O)NC2=CC(=O)C(NCCN(C)C)=C(C[C@@H](C)C[C@H](OC)[C@H](O)[C@@H](C)/C=C(\C)[C@@H]1OC(N)=O)C2=O.Cl [Compound B, 17-Demethoxy-17-[[2-(dimethylamino)ethyl]amino]geldanamycin hydrochloride]	42	24	18	significantly greater in vivo anti-cancer activity	20	10	10	significant in vivo anti-cancer activity
CO[C@H]1/C=C\C=C(/C)C(=O)NC2=CC(=O)C(NCCCN(C)C)=C(C[C@@H](C)C[C@H](OC)[C@H](O)[C@@H](C)/C=C(\C)[C@@H]1OC(N)=O)C2=O [Compound C, 17-Dimethylaminopropylamino-17-demethoxygeldanamycin, reference compound]	16	14	2	–	–	–	–	–
